In patent publication US10010513B2, “Aqueous pharmaceutical composition containing a biologic therapeutic agent and guanidine or a guanidine derivative and an injection including the composition” (Novartis AG, priority 2012, dated 2018):

Experiments:
[1] = Viscosity of the formulations; type: physicochemical; settings: Table 5 summary; 150 mM excipient, IgG1/lambda monoclonal antibody
Protocol: Unless otherwise specifically stated, viscosity of any composition discussed herein is determined at a temperature of 20° C. and a shear rate of 1029 s^−1 with a cone spindle of geometry 0.50°/40 mm.

New Zealand White rabbit = assay: Toxicity of Arginine-containing formulation buffer following intravitreal administration; type: in vivo
Protocol: A study was performed to determine the toxicity of an Arginine-containing formulation buffer following intravitreal administration to the New Zealand White rabbit for 4 weeks. Three buffers in 50 μl volumes and varying in concentrations of Arginine were injected intravitreally on a weekly basis for 3 weeks (i.e., three doses) and evaluated for toxicity. The three buffers were as follows: (1) 10 mM Histidine, 170 mM, Trehalose, 0.01% polysorbate 20, pH 5.5; (2) 50 mM Arginine, 10 mM, Histidine, 120 mM Trehalose, 0.01% polysorbate 20, pH 5.5; and (3) 150 mM Arginine, 10 mM Histidine, 0.01% polysorbate).

Structure (SMILES)	Reduction of the viscosity of the biologic relative to trehalose, urea and taurin [1]	Damage to photoreceptor cells of the eye (New Zealand White rabbit; higher concentrations, about 150 mM)	Damage to photoreceptor cells of the eye (New Zealand White rabbit; lower concentrations of arginine)
N=C(N)N [guanidine]	far superior in reducing the viscosity	–	–
N=C(N)NCCC[C@H](N)C(=O)O [arginine]	far superior in reducing the viscosity	have shown damage to photoreceptor cells	do not cause damage to photoreceptor cells
